Test results reported in BigSolDB 2.1.

N#CCNC(=O)c1cnccc1C(F)(F)F
solubility (mole fraction)
Details | 283.15 K | 288.15 K | 293.15 K | 298.15 K | 303.15 K | 308.15 K | 313.15 K | 318.15 K | 323.15 K
in 1,4-dioxane | – | 0.0145 | 0.0175 | 0.0208 | 0.0248 | 0.0295 | 0.0348 | 0.041 | 0.0482
in THF | 0.0263 | 0.0302 | 0.0343 | 0.0387 | 0.044 | 0.0502 | 0.057 | 0.0645 | 0.072
in acetone | 0.0359 | 0.041 | 0.0464 | 0.0527 | 0.0595 | 0.0677 | 0.0766 | 0.0871 | 0.099
in acetonitrile | 0.0173 | 0.0206 | 0.0245 | 0.0289 | 0.034 | 0.0404 | 0.0475 | 0.0557 | 0.0657
in ethanol | 0.00429 | 0.00546 | 0.00686 | 0.00856 | 0.0107 | 0.0133 | 0.0163 | 0.0202 | 0.0246
in ethyl acetate | 0.00961 | 0.0114 | 0.0134 | 0.0158 | 0.0182 | 0.0213 | 0.0248 | 0.0288 | 0.033
in isobutanol | 0.00152 | 0.00202 | 0.00264 | 0.00343 | 0.00441 | 0.00561 | 0.0071 | 0.00885 | 0.011
in isopropanol | 0.00249 | 0.00328 | 0.00424 | 0.00543 | 0.00696 | 0.00893 | 0.0114 | 0.0144 | 0.0181
in methanol | 0.00943 | 0.0115 | 0.0139 | 0.0168 | 0.0202 | 0.0241 | 0.0286 | 0.034 | 0.0402
in n-butanol | 0.00298 | 0.00376 | 0.00475 | 0.00589 | 0.00731 | 0.00906 | 0.0111 | 0.0138 | 0.0169
in n-butyl acetate | 0.00479 | 0.00572 | 0.00684 | 0.00806 | 0.00932 | 0.011 | 0.0128 | 0.015 | 0.0173
in n-propanol | 0.00267 | 0.00344 | 0.00436 | 0.00552 | 0.00691 | 0.00874 | 0.0109 | 0.0138 | 0.0174
